From patent US20230017045A1, “PYRIDINE AND PYRIMIDINE CARBOXYLATE HERBICIDES AND METHODS OF USE THEREOF” (Dow AgroSciences LLC, priority 2017, published 2023)
Like-named read-outs stand apart in the source and are kept apart here.

System: test plant species
Experiment: Post-emergent herbicidal activity test (greenhouse, foliar spray, visual growth reduction)
Format: in vivo
Settings: 140 g ai/ha; for pest or weed control at 140 g/ha: post-emergence, 336 h
Experimental: Post-emergent Test: Seeds or nutlets of the desired test plant species were planted in Sun Gro Metro-Mix® 360 planting mixture, which typically has a pH of 6.0 to 6.8 and an organic matter content of about 30 percent, in plastic pots with a surface area of 64 square centimeters. In some aspects, to ensure good germination and healthy plants, a fungicide treatment and/or other chemical or physical treatment was applied. The plants were grown for 7-21 d in a greenhouse with an approximate 15 h photoperiod which was maintained at 23-29° C. during the day and 22-28° C. during the night. Nutrients and water were added on a regular basis and supplemental lighting was provided with overhead metal halide 1000-Watt lamps as necessary. Plants were used for testing when they reached the first or second true leaf stage. A weighed amount, determined by the highest rate to be tested, of each test compound was placed in a 25 mL glass vial and was dissolved in 4 mL of a 97:3 v/v mixture of acetone and DMSO to obtain concentrated stock solutions. […] The concentrated stock solutions obtained were diluted with 20 mL of an aqueous mixture containing acetone, water, isopropyl alcohol, DMSO, […] crop oil concentrate, and X-77 surfactant in a 48.5:39:10:1.5:1.0:0.02 v/v ratio to obtain spray solutions containing the application rate. Compound requirements are based upon a 12 mL application volume at a rate of 187 liters per hectare (L/ha). Formulated compounds were applied to the plant material with an overhead Mandel track sprayer equipped with […] nozzles calibrated to deliver 187 L/ha over an application area of 0.64 square meters at a spray height of 18 inches (43 cm) above the average plant canopy height. Control plants were sprayed in the same manner with the solvent blank. The treated plants and control plants were placed in a greenhouse as described above and watered by subirrigation to prevent wash-off of the test compounds. After 14 d, the condition of the test plants as compared with that of the nontreated and control plants was determined visually and scored on a scale of 0 to 100 percent where 0 corresponds to no injury and 100 corresponds to complete control. In the reporting of the results, Table A: Percent Growth Reduction Conversion Table was used.

[1] = ECHCG: barnyardgrass (Echinochloa crus-galli), 14 days after application, read-out: Visual Growth Reduction (%) 14 Days After Application, ECHCG
[2] = IPOHE: ivy-leaf morning glory (Ipomoea hederacea), 14 days after application, read-out: Visual Growth Reduction (%) 14 Days After Application, IPOHE
[3] = KCHSC: kochia (Bassia scoparia), 14 days after application, read-out: Visual Growth Reduction (%) 14 Days After Application, KCHSC
[4] = ORYSA: rice (Oryza sativa), 14 days after application, read-out: Visual Growth Reduction (%) 14 Days After Application, ORYSA
[5] = SETFA: giant foxtail (Setaria faberi), 14 days after application, read-out: Visual Growth Reduction (%) 14 Days After Application, SETFA
[6] = SORVU: grain sorghum (Sorghum vulgare), 14 days after application, read-out: Visual Growth Reduction (%) 14 Days After Application, SORVU
[7] = STEME: common chickweed (Stellaria media), 14 days after application, read-out: Visual Growth Reduction (%) 14 Days After Application, STEME
[8] = TRZAS: wheat, spring (Triticum aestivum), 14 days after application, read-out: Visual Growth Reduction (%) 14 Days After Application, TRZAS
[9] = blackgrass (Alopecurus myosuroides), 14 Days After Application, read-out: Visual Growth Reduction (%) ALOMY
[10] = canada thistle (Cirsium arvense), 14 Days After Application, read-out: Visual Growth Reduction (%) CIRAR
[11] = crabgrass (Digitaria sanguinalis), 14 Days After Application, read-out: Visual Growth Reduction (%) DIGSA
[12] = lambsquarters (Chenopodium album), 14 Days After Application, read-out: Visual Growth Reduction (%) CHEAL
[13] = redroot pigweed (Amaranthus retroflexus), 14 Days After Application, read-out: Visual Growth Reduction (%) AMARE
[14] = wild oat (Avena fatua), 14 Days After Application, read-out: Visual Growth Reduction (%) AVEFA
[15] = yellow nutsedge (Cyperus esculentus), 14 Days After Application, read-out: Visual Growth Reduction (%) CYPES

Row | SMILES | pest or weed control at 140 g/ha [1] [%] | pest or weed control at 140 g/ha [2] [%] | pest or weed control at 140 g/ha [3] [%] | pest or weed control at 140 g/ha [4] [%] | pest or weed control at 140 g/ha [5] [%] | pest or weed control at 140 g/ha [6] [%] | pest or weed control at 140 g/ha [7] [%] | pest or weed control at 140 g/ha [8] [%] | pest or weed control at 140 g/ha [9] [%] | pest or weed control at 140 g/ha [10] [%] | pest or weed control at 140 g/ha [11] [%] | pest or weed control at 140 g/ha [12] [%] | pest or weed control at 140 g/ha [13] [%] | pest or weed control at 140 g/ha [14] [%] | pest or weed control at 140 g/ha [15] [%] | further results
1 | COC(=O)c1nc(-c2ccc(Cl)c(CF)c2F)ccc1Cl [F274, Methyl 3-chloro-6-(4-chloro-2-fluoro-3-(fluoromethyl)phenyl) picolinate] | 0 to 29 | 0 to 29 | 0 to 29 | 0 to 29 | 0 to 29 | 0 to 29 | 0 to 29 | 0 to 29 | 0 to 29 | 60 to 74 | 0 to 29 | 0 to 29 | 0 to 29 | 0 to 29 | 0 to 29 | –
2 | Cc1cc(-c2ccc(Cl)c(C(=O)O)n2)ccc1C(F)(F)F [F316, 3-Chloro-6-(3-methyl-4-(trifluoromethyl)phenyl) picolinic acid] | 0 to 29 | 60 to 74 | 0 to 29 | 0 to 29 | 0 to 29 | 0 to 29 | 0 to 29 | 0 to 29 | 0 to 29 | 30 to 44 | 0 to 29 | 30 to 44 | 0 to 29 | 0 to 29 | 0 to 29 | –
3 | COC(=O)c1nc(-c2ccc(C(F)(F)F)c(OC)c2)c(F)cc1Cl [F295, Methyl 3-chloro-5-fluoro-6-(3-methoxy-4-(trifluoromethyl)phenyl)picolinate] | 0 to 29 | 60 to 74 | 0 to 29 | 0 to 29 | 0 to 29 | 0 to 29 | 0 to 29 | 0 to 29 | 0 to 29 | 60 to 74 | 45 to 59 | 30 to 44 | 0 to 29 | 0 to 29 | 75 to 84 | –
4 | COC(=O)c1nc(-c2ccc(Cl)c([N+](=O)[O-])c2)ccc1Cl [F83, Methyl 3-chloro-6-(4-chloro-3-nitrophenyl) picolinate] | – | – | – | – | – | – | – | – | – | – | – | – | – | – | – | Visual Growth Reduction (%) 14 Days After Application, ALOMY (ALOMY: blackgrass (Alopecurus myosuroides), 14 days after application): G (0-29); Visual Growth Reduction (%) 14 Days After Application, AMARE (AMARE: redroot pigweed (Amaranthus retroflexus), 14 days after application): G (0-29); Visual Growth Reduction (%) 14 Days After Application, AVEFA (AVEFA: wild oat (Avena fatua), 14 days after application): G (0-29); Visual Growth Reduction (%) 14 Days After Application, CHEAL (CHEAL: lambsquarters (Chenopodium album), 14 days after application): G (0-29); Visual Growth Reduction (%) 14 Days After Application, CIRAR (CIRAR: canada thistle (Cirsium arvense), 14 days after application): G (0-29); Visual Growth Reduction (%) 14 Days After Application, CYPES (CYPES: yellow nutsedge (Cyperus esculentus), 14 days after application): G (0-29); Visual Growth Reduction (%) 14 Days After Application, DIGSA (DIGSA: crabgrass (Digitaria sanguinalis), 14 days after application): G (0-29); Visual Growth Reduction (%) 14 Days After Application, ECHCG (ECHCG: barnyardgrass (Echinochloa crus-galli), 14 days after application): G (0-29); Visual Growth Reduction (%) 14 Days After Application, IPOHE (IPOHE: ivy-leaf morning glory (Ipomoea hederacea), 14 days after application): G (0-29); Visual Growth Reduction (%) 14 Days After Application, KCHSC (KCHSC: kochia (Bassia scoparia), 14 days after application): G (0-29); Visual Growth Reduction (%) 14 Days After Application, ORYSA (ORYSA: rice (Oryza sativa), 14 days after application): G (0-29); Visual Growth Reduction (%) 14 Days After Application, SETFA (SETFA: giant foxtail (Setaria faberi), 14 days after application): G (0-29); Visual Growth Reduction (%) 14 Days After Application, SORVU (SORVU: johnsongrass (Sorghum vulgare), 14 days after application): G (0-29); Visual Growth Reduction (%) 14 Days After Application, STEME (STEME: common chickweed (Stellaria media), 14 days after application): G (0-29); Visual Growth Reduction (%) 14 Days After Application, TRZAS (TRZAS: wheat, spring (Triticum aestivum), 14 days after application): G (0-29)
5 | COC(=O)c1nc(-c2c(F)cc(Cl)cc2Cl)ccc1Cl [F62, Methyl 3-chloro-6-(2,4-dichloro-6-fluorophenyl) picolinate] | – | 95 to 100 | 60 to 74 | 0 to 29 | 75 to 84 | 85 to 94 | 0 to 29 | – | – | – | – | – | – | – | – | pest or weed control at 140 g/ha (ALOMY: blackgrass (Alopecurus myosuroides), 14 days after application, read-out: Visual Growth Reduction (%) 14 Days After Application, ALOMY): 0 to 29%; pest or weed control at 140 g/ha (AMARE: redroot pigweed (Amaranthus retroflexus), 14 days after application, read-out: Visual Growth Reduction (%) 14 Days After Application, AMARE): 95 to 100%; pest or weed control at 140 g/ha (AVEFA: wild oat (Avena fatua), 14 days after application, read-out: Visual Growth Reduction (%) 14 Days After Application, AVEFA): 0 to 29%; pest or weed control at 140 g/ha (CHEAL: lambsquarters (Chenopodium album), 14 days after application, read-out: Visual Growth Reduction (%) 14 Days After Application, CHEAL): 75 to 84%; pest or weed control at 140 g/ha (CIRAR: canada thistle (Cirsium arvense), 14 days after application, read-out: Visual Growth Reduction (%) 14 Days After Application, CIRAR): 75 to 84%; pest or weed control at 140 g/ha (CYPES: yellow nutsedge (Cyperus esculentus), 14 days after application, read-out: Visual Growth Reduction (%) 14 Days After Application, CYPES): 0 to 29%; pest or weed control at 140 g/ha (DIGSA: crabgrass (Digitaria sanguinalis), 14 days after application, read-out: Visual Growth Reduction (%) 14 Days After Application, DIGSA): 75 to 84%
